This is an account of results in paper PMC4309560, “Creating Novel Activated Factor XI Inhibitors through Fragment Based Lead Generation and Structure Aided Drug Design” (PLoS ONE, 2015).

Like-named read-outs stand apart in the source and are kept apart here. Some results are limits rather than exact numbers.

The target in data set [1] is T1, Human FXIa (Homo sapiens, UniProt P03951).
T1 construct: purchased HTI, Essex Junction, USA
The experiment in a line: FXIa enzymatic chromogenic assay. It counts as biochemical. On the procedure:
(§1) Enzymatic assay. […] Selected compounds were also screened against other serine proteases to evaluate their selectivity profiles.
(§2) Once the compounds were synthesized and characterized, enzymatic assays were performed to evaluate the inhibitory activity of the resulting compounds against FXIa and other serine proteases. […] IC50 values for the compounds were determined using equation: Q= V/(1+([I]/IC50)^n) Q denotes the assay readout, V denotes the uninhibited velocity of the enzyme, [I] denotes the inhibitor concentration, n denotes the slope and IC50 is the inhibitor concentration at V/2.
(§3) [S] denotes the substrate concentration.

In data set [2] the target is Human tPA (Homo sapiens, UniProt P00750). The experiment in a line: biochemical. The conditions noted are these: read-out: tPA % inhibition at 99 μM. As to the method:
as §1, §2
tPa. Human tPA was from Biopool, Umeå, Sweden.

Data set [3] deals with T2, Human PKK (Homo sapiens, UniProt P03952).
T2 construct: trypsin, plasma kallikrein (PKK), FIXa; purchased Calbiochem, Darmstadt, Germany
T2 sequence (P03952 391-638 limits assumed): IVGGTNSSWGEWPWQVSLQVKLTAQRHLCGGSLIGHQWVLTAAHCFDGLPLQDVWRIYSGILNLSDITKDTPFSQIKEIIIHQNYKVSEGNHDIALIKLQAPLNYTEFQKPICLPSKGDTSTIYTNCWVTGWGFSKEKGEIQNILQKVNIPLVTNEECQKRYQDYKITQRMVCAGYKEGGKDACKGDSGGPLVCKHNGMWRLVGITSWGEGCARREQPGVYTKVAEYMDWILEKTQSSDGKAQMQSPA
T2 sequence (P03952 20-390 partner limits assumed): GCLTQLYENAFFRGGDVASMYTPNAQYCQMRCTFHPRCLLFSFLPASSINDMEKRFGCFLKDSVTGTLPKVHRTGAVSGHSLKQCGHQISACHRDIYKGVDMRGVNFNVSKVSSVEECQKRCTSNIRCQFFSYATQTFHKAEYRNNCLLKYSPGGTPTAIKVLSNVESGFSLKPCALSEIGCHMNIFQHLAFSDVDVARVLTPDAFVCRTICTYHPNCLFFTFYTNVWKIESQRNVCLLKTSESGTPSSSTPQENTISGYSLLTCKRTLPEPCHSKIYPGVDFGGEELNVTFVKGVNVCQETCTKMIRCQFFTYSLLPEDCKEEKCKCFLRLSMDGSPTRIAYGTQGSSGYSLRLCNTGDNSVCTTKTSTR
The experiment in a line: PKK (plasma kallikrein) chromogenic assay. The conditions noted are these: for Ki: converted from IC50. The format is biochemical. As to the method:
as §1, §2, §3
PKK. Human PKK was from Calbiochem, Darmstadt, Germany.

The target of data set [4] is T3, Human plasmin (Homo sapiens, UniProt P00747).
T3 construct: Human plasmin was from Enzyme Research Laboratories, Swansea, UK; purchased Enzyme Research Laboratories, Swansea, UK
T3 sequence (P00747 581-810 limits assumed): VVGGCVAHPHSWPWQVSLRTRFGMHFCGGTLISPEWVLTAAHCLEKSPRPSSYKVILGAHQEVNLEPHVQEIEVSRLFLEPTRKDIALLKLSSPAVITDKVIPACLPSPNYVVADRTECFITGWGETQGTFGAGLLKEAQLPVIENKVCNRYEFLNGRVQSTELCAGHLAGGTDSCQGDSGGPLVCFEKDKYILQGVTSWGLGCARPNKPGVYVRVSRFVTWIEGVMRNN
T3 sequence (P00747 97-580 partner limits assumed): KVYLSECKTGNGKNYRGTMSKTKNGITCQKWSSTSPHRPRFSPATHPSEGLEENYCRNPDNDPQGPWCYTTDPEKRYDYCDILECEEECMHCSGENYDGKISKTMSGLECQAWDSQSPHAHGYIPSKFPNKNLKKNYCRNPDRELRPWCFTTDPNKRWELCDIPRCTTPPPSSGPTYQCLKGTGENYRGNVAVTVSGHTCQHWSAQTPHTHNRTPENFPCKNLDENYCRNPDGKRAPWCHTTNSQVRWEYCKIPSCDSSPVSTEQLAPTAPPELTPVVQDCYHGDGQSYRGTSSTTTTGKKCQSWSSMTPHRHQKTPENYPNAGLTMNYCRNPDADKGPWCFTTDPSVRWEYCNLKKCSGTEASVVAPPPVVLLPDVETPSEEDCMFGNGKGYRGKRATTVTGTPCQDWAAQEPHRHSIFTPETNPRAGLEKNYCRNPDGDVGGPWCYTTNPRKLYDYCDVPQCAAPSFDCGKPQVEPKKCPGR
The experiment in a line: Plasmin chromogenic assay. The format is biochemical. The conditions noted are these: for inhibition at 99 µM: read-out: Plasmin % inhibition at 99 μM. As to the method: as §1, §2, §3
Plasmin. Human plasmin was from Enzyme Research Laboratories, Swansea, UK.

Data set [5] has as its target Human FXa (Homo sapiens, UniProt P00742). The data set is described as follows: biochemical. The note with it: read-out: FXa % inhibition at 99 μM. As to the method:
as §1, §2

For data set [6], the target named is Human FIXa (Homo sapiens, UniProt P00740). The experiment in a line: biochemical. The note with it: read-out: FIXa % inhibition at 99 μM. On the procedure: as §1, §2
Chain of Human FIXa (P00740 227-461 limits assumed): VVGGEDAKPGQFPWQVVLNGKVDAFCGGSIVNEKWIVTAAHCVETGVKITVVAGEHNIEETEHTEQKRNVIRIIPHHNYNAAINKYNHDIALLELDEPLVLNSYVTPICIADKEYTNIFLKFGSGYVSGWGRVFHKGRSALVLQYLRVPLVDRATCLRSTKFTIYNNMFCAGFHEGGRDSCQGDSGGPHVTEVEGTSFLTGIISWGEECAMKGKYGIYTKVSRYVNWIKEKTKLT
Chain of Human FIXa (P00740 47-191 partner limits assumed): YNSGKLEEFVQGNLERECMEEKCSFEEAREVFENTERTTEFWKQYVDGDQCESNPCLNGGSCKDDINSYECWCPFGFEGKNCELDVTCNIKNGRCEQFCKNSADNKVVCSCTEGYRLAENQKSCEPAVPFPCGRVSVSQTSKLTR
The target of data set [7] is Recombinant human trypsin (Homo sapiens, UniProt P07477). The experiment in a line: biochemical. The conditions noted are these: read-out: Trypsin % inhibition at 99 μM. As to the method:
as §1, §2
Trypsin. Recombinant human trypsin was from Polymun, Vienna, Austria.

The target in data set [8] is T4, Human recombinant thrombin (Homo sapiens, UniProt P00734).
T4 construct: Human recombinant thrombin was prepared in house; made in house
The experiment in a line: Thrombin (FIIa) chromogenic assay. The format is biochemical. The note with it: for inhibition at 99 µM: read-out: FIIa % inhibition at 99 μM. On the procedure:
as §1, §2, §3
Thrombin. Human recombinant thrombin was prepared in house.

Data set [9] can be described thus: Caco2 efflux. The format is in vitro ADME. The conditions noted are these: human, Caco-2; Caco2, Papp B to A / Papp A to B, pH 7.4 at side A. The source says:
Efflux was studied in the same Caco2 cells with the modification that HBSS buffer pH 7.4 was used on both sides of the monolayer. The permeability was studied in the apical to basolateral direction (Papp AB) as well as in the basolateral to apical direction and (Papp BA). Efflux ratios were derived from the following equation: Papp BA/Papp AB.
Background: Caco-2 monolayers are a common model of the intestinal barrier.

Data set [10] has as its system rat hepatocytes. The experiment in a line: Rat hepatocyte metabolic stability assay. It counts as in vitro ADME. As to the method: Rat hepatocyte metabolic stability was determined in accordance with the method described by Jacobson et al.. Cryo preserved hepatocytes at a concentration of 10^6 viable cells/mL were used. After thawing, hepatocytes were incubated for 10 min to warm to 37°C and test compounds, dissolved in acetonitrile, were added to give a final concentration of 1 μM. At 0.5, 5, 15, 30, 45, 60, 80, 100 and 120 min, the incubation system was mixed and 20 μL aliquots were transferred at each time point to wells in a separate plate filled with 80 μL acetonitrile to stop the reaction. The quenching plate was then vortexed followed by centrifugation, and supernatants were analyzed by LC/MS/MS. Peak areas were determined from extracted ion chromatograms, and the in vitro intrinsic clearance (in vitro CLint, in μL/min/10^6 cells) of parent compound was calculated from the slope in the regression analysis of the natural logarithm of parent concentration vs. time curve.

For data set [11], the system named is Caco2 cells. The experiment in a line: Caco2 permeability. The note with it: measured at pH 7.4 at side A. The format is in vitro ADME. As to the method:
A monolayer of Caco2 cells, cultured on semi-permeable polycarbonate surfaces, was used to study the permeability in the apical to basolateral direction. The process was atomized by a robotic Tecan EVO platform (Männerdorf, Switzerland) and 24-transwell plates from Costar (Cambridge, MA, USA). HBSS buffer pH 7.4 was dispensed to the basal side of the monolayer. […] Samples for quantitative analysis by LC/MS/MS were withdrawn before the addition of the test substrate and at 45 and 120 min post addition of the test substrate. During incubation the transwell plates were placed in a shaking incubator at 37°C between sampling. The peak areas were exported to Excel where Papp-values and recoveries were calculated. Twenty-two reference compounds with known human oral bioavailability were used to establish a correlation curve with Papp versus the fraction of the oral dose absorbed (fa).

Broadly, the IC50 is the concentration needed to halve the response being measured. What is called Ki is a measure of affinity in units of concentration, obtained from inhibition or displacement. In general, efflux ratio refers to a quotient of directional permeabilities that is used to spot active efflux.

Chain of Human FXa (P00742 235-488 limits assumed): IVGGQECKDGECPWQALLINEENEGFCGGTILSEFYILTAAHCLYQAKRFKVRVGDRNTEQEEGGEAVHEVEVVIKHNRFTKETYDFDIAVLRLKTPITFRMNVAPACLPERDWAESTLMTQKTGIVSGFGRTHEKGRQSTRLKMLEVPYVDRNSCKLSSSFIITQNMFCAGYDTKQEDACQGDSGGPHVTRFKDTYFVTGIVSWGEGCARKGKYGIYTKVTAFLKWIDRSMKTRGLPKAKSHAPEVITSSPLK
Chain of Human FXa (P00742 41-179 partner limits assumed): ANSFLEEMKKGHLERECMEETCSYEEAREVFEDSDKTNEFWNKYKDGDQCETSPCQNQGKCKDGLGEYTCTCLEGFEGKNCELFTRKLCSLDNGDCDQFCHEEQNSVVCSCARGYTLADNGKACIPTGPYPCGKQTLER
Chain of Human tPA (P00750 36-562): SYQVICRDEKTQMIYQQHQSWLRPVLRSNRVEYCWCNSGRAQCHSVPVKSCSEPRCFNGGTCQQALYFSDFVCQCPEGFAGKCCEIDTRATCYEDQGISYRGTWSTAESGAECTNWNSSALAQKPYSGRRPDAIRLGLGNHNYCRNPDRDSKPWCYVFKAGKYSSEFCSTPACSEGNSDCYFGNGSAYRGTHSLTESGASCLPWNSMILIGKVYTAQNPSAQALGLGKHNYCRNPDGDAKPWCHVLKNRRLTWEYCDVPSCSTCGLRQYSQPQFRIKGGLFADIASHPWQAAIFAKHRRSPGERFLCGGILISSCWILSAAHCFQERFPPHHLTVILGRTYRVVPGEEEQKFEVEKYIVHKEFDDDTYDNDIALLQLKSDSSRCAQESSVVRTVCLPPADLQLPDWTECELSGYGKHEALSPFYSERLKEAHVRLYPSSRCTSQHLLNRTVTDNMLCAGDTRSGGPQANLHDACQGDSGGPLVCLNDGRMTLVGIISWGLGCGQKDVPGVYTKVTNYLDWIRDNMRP
T1 sequence (P03951 388-625): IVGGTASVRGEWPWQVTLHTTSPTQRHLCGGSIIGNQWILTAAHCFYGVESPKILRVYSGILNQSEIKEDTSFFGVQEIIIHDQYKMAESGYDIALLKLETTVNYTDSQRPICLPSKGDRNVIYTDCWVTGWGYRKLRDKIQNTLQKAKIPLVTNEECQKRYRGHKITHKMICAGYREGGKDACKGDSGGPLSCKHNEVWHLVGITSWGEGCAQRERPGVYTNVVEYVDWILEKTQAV
T1 sequence (P03951 19-387): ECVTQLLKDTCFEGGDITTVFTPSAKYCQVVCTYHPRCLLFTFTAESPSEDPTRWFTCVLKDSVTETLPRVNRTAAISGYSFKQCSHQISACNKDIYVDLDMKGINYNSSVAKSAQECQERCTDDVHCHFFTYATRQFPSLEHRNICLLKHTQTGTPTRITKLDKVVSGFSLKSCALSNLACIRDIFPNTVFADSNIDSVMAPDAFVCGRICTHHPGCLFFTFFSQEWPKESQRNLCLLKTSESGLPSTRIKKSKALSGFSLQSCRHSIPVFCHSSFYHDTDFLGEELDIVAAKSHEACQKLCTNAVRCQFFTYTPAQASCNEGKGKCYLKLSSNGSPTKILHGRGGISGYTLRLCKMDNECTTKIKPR

In data set [1], `[H]/N=C(/N)c1ccc2cc(C(=O)Nc3ccccc3)cc(Nc3ncccn3)c2c1` [Compound 1] had an IC50 of under 0.14 µM.

In data set [1], `CCCS(=O)(=O)N[C@@H](C(=O)N[C@@H](CC(C)C)C(=O)NCc1ccc(C(=N)N)cc1)C1CCCCC1` [Compound 2, reference compound] gave an IC50 of 0.11 µM and a Ki of 0.06 µM.

In the case of `O=c1ccc2cc(Cl)ccc2[nH]1` [Compound 5], the inhibition at 99 µM was 0% in [2]; 5% in data set [3] (read-out: PKK % inhibition at 99 μM); 31% in data set [4]; 31% in data set [5]; 1% in data set [6]; 0% in data set [7]. Moreover, the inhibition at 99 µM in data set [8] came out at 8%. In data set [1], this compound returned a 50% inhibitory concentration (IC50) of 140 µM. Besides, the “ligand efficiency (LE)” value in data set [1] (FXIa) is listed as 0.44. Besides, the “-ΔG fragment (printed with reversed sign in the ΔG link equation)” value in data set [1] (FXIa, subtracted term, so ΔG itself is negative) was 5.66 kcal/mol. Further, the Ki in data set [1] (read-out: FXIa Ki) amounted to 70 µM.

The compound `N=C(N)c1ccccc1` [Compound 7, benzamidine, reference compound] registered an IC50 in data set [1] of 610 µM.

On to `COC(=O)Nc1ccc(-c2nc(CNC(=O)CCc3cc(Cl)ccc3-n3cnnn3)[nH]c2Cl)cc1` [Compound 11, reference compound], for which the inhibition at 99 µM worked out at 0% in [2]; 0% in [4]; 6% in data set [5]; 0% in [6]; 4% in [7]. Moreover, the half-inhibitory concentration (IC50) in data set [3] was determined as 20 µM; in data set [1] it was 0.16 µM; in data set [8], 63 µM. The inhibition constant Ki in data set [3] came out at 4.2 µM; in [1], 0.08 µM; in data set [8] (converted from IC50) it was 31 µM.

As for `CC(=O)N[C@@H](Cc1ccccc1)C(=O)NCc1cc(=O)[nH]c2ccc(Cl)cc12` [Compound 14, (S)-2-Acetamido-N-{(6-chloro-2-oxo-1,2-dihydroquinolin-4-yl)methyl}-3-phenylpropanamide], the inhibition at 99 µM in data set [2] came to 3%; in data set [4], 7%; in data set [5], 0%; in [6], 4%; in data set [7] it was 18%; in [8], 9%. For the same compound, the concentration for half-maximal inhibition (IC50) in data set [3] was 59 µM; in data set [1], 33 µM. The figures for the inhibition constant Ki in data set [3] and in data set [1] were 12 µM and 16 µM, respectively. Moreover, the “ligand efficiency (LE)” value in data set [1] (FXIa) is given as 0.22.

In the case of `CN(C)C(=O)[C@H](Cc1ccccc1)NC(=O)c1ccc2[nH]c(=O)cc(O)c2c1` [Compound 16, (S)-N-(1-(Dimethylamino)-1-oxo-3-phenylpropan-2-yl)-4-hydroxy-2-oxo-1,2-dihydroquinoline-6-carboxamide], the IC50 in data set [1] was over 1000 µM. Besides, the inhibition at 1000 µM in [1] (read-out: FXIa % inh. at 1 mM) worked out at 36%.

`O=C1CC(CNC(=O)[C@H](Cc2ccccc2)NC(=O)c2ccc3[nH]c(=O)cc(O)c3c2)c2cc(Cl)ccc2N1` (some centres unmarked) [Compound 18, N-({2S}-1-({6-Chloro-2-oxo-1,2,3,4-tetrahydroquinolin-4-yl}methylamino)-1-oxo-3-phenylpropan-2-yl)-4-hydroxy-2-oxo-1,2-dihydroquinoline-6-carboxamide]: in data set [1], half-maximal inhibition (IC50) required 0.01 µM and the affinity corresponds to a Ki of 0.005 µM.

Take `Cc1cc(N)nc2ccccc12` [Compound 19]: the inhibition at 99 µM was 7% in data set [2]; 8% in [4]; 9% in [5]; 7% in data set [6]; 43% in [7]; 8% in [8]. The IC50 in [1] worked out at 240 µM. This compound had a Ki in data set [1] of 120 µM.

On to `O=C1CC(CC(=O)NC(Cc2ccccc2)C(=O)Nc2ccc(-c3nnn[nH]3)cc2)c2cc(Cl)ccc2N1` (centres unmarked) [Compound 20, N-(4-(1H-Tetrazol-5-yl)phenyl)-2-(2-(6-chloro-2-oxo-1,2,3,4-tetrahydroquinolin-4-yl)acetamido)-3-phenylpropanamide], for which the inhibition at 99 µM in data set [2] is 15%; in data set [4], 8%; in data set [5], 12%; in data set [6] it was 4%; in data set [7] it was 7%; in data set [8], 10%. The half-inhibitory concentration (IC50) in data set [3] was 2.3 µM; in [1] it was 0.33 µM. Further, the inhibition constant Ki came to 0.48 µM in data set [3] and 0.16 µM in data set [1].

For `O=C(CC1Cc2cc(Cl)ccc2NC1=O)NC(Cc1ccccc1)C(=O)Nc1ccc(-c2nnn[nH]2)cc1` (centres unmarked) [Compound 21, N-(4-(1H-Tetrazol-5-yl)phenyl)-2-(2-(6-chloro-2-oxo-1,2,3,4-tetrahydroquinolin-3-yl)acetamido)-3-phenylpropanamide], the inhibition at 99 µM in [2] came to 3%; in [4] it was 0%; in data set [5], 0%; in [6], 0%; in data set [7], 1%; in data set [8], 2%. For the same compound, the values for the IC50 in [3] and in data set [1] were 25 µM and 1.9 µM, respectively. The results for the inhibitory constant (Ki) in data set [3] and in [1] were 5.2 µM and 0.95 µM, respectively.

Regarding `O=C(Cc1cc2cc(Cl)ccc2[nH]c1=O)NC(Cc1ccccc1)C(=O)Nc1ccc(-c2nnn[nH]2)cc1` (centres unmarked) [Compound 22, N-(4-(1H-Tetrazol-5-yl)phenyl)-2-(2-(6-chloro-2-oxo-1,2-dihydroquinolin-3-yl)acetamido)-3-phenylpropanamide], the inhibition at 99 µM in data set [2] was determined as 18%; in data set [5], 24%; in data set [6] it was 7%; in data set [7], 14%; in data set [8] it was 27%. The values for the IC50 in data set [3], in data set [4] and in data set [1] were 10 µM, 70 µM and 10 µM, respectively. In addition, the Ki was found to be 2.1 µM in data set [3], 33 µM in [4] (converted from IC50) and 5 µM in data set [1].

With `O=C(CCc1cc2cc(Cl)ccc2[nH]c1=O)N[C@@H](Cc1ccccc1)C(=O)Nc1ccc(-c2nnn[nH]2)cc1` [Compound 23, (S)-N-(4-(1H-Tetrazol-5-yl)phenyl)-2-(3-(6-chloro-2-oxo-1,2-dihydroquinolin-3-yl)propanamido)-3-phenylpropanamide], in data set [1], inhibition was half-maximal at 67 µM (IC50) and the inhibition constant (Ki) was 34 µM.

For the compound `O=C(CCc1cc(=O)[nH]c2ccc(Cl)cc12)N[C@@H](Cc1ccccc1)C(=O)Nc1ccc(-c2nnn[nH]2)cc1` [Compound 24, (S)-N-(4-(1H-Tetrazol-5-yl)phenyl)-2-(3-(6-chloro-2-oxo-1,2-dihydroquinolin-4-yl)propanamido)-3-phenylpropanamide], in [1], the IC50 was found to be 9 µM and the Ki turned out to be 4.5 µM.

Regarding `Cc1c(-c2ccccc2)n[nH]c1C(=O)N(C)Cc1cc(=O)[nH]c2ccccc12` [Compound 27], in data set [9], the efflux ratio was determined as 6.7. Besides, the “Rat CLint” value in [10] is listed as 58 μL/min/ 1·10^6 cells. In [1], this compound yielded an IC50 of 99 µM and a Ki of 50 µM. Moreover, in data set [11], the “Caco2 A to B permeability” value is recorded as 12 1·10^-6 cm/s.
